Where two headings read alike, the source gives them in different places.
Tested on: neutrophil granulocytes (PMNL)
Assay: Granulocytic test modified after BRANDT (phagocytosis of yeast particles)
Assay type: cell-based, human
Text: 1. […] They represent about 60-70% of all leucocytes in the human blood. The phagocytosis effect of all these granulocytes can be measured in vitro according to a method developed by BRAND (Scand. J. Haematol. Suppl. 2, 1967) and modified by TYMPNER (Munich Med. Weekly 8, 251, 1978).
A granulocytic fraction is taken from the blood of healthy probands (PMNL--abbreviation of polymorphonuclearleucocytes)
This PMNL-fraction mainly consists of neutrophil granulocytes and few eosinophil and basophil granulocytes as well as of lymphocytes, monocytes and thrombocytes. After addition of a defined amount of yeast cells (Saccharomyces cerevisiae) and the substance to be tested incubation is carried out for 10 minutes at 37° C., the suspension is spread on an object carrier and incubated at room temperature for further 35 minutes. Then the spreads are coloured and microscopically evaluated. 100 PMNL-cells are selected per object carrier, and it is determined how many yeast particles of the individual cells have been phagocytised. The phagocytosis index indicates the average number of phagocytised yeast particles.
15 ml of heparinised venous blood of clinically healthy adults was diluted with 1.5% of dextran T 500 (Pharmacia) 2:1 and allowed to stand at room temperature for 30 minutes. The supernatant containing leucocytes was injected into a sterile plastic tube and centrifugated for 7 minutes at 500 r.p.m. The granulocytes in the deposit were washed twice with 5 ml of PPM I-buffer in each case. Then the granulocytes were suspended in about 5 ml of buffer and adjusted in the Neubauer's chamber to a concentration of 5×10^6 cells/ml.
Yeast suspended in 0.9% of NaCl was heated to 100° C., three times filtered through gaze and adjusted to 3-5×10^7 particles/ml.
The serum of 5 clinically healthy adults was mixed and frozen in portions of 5 ml. For the test dilution was carried out with 0.9% of NaCl 1:10.
The test was carried out as follows: 0.2 ml of substance dissolved in 0.9% of NaCl and 0.2 ml of 0.9% NaCl, as a control substance, were pipetted to 0.2 ml, each, of pool serum, granulocyte- and yeast suspension and first incubated for 10 minutes at 37° C. Then 0.5 ml of each preparation were applied to an object carrier and incubated in a humid chamber at room temperature for further 35 minutes. Granulocytes deposited, the supernatant was carefully washed with 0.9% of NaCl, and the object carrier was dried with a dryer.
100 granulocytes were counted out per object carrier, and it was determined how many yeast particles of the individual cells had been phagocytised. The phagocytosis index (PJ) indicates the average number of yeast particles per granulocyte. The increase (S) of the phagocytosis activity in the blank value was calculated according to: [formula]

[1] = up to a concentration of 10^-4 %

CCC1CN2CCC3(C(=O)Nc4ccccc43)C2CC1C(=COC)C(=O)OC (single isomer, unassigned; isomer a) [Isorhynchophylline, normal-isorhynchophylline, isomer A]
activity in the granulocytic test: active
percental phagocytosis increase (concentration 10^-2): 10.8%
percental phagocytosis increase (concentration 10^-3): 25.2%
percental phagocytosis increase (concentration 10^-4): 27.3%
percental phagocytosis increase (concentration 10^-5): 16.1%
percental phagocytosis increase (concentration 10^-6): 8.8%

COC(=O)C1=COC(C)C2CN3CCC4(C(=O)Nc5ccccc54)C3CC12 (single isomer, unassigned; isomer b) [Mitraphylline, normal-mitraphylline, isomer B]
activity in the granulocytic test: not active

CCC1CN2CCC3(C(=O)Nc4ccccc43)C2CC1C(=COC)C(=O)OC (single isomer, unassigned; isomer b) [Rhynchophylline, normal-rhynchophyllin, isomer B]
activity in the granulocytic test: not active

C=C[C@]12CN(C)[C@@H]3[C@H]4CO[C@H](C[C@H]41)[C@]1(C(=O)Nc4ccccc41)[C@@H]32 [Gelsemine, gelsemine, reference compound]
percental phagocytosis increase (concentration 10^-2): 22.1%
percental phagocytosis increase (concentration 10^-3): 40.4%
percental phagocytosis increase (concentration 10^-4): 33.7%
percental phagocytosis increase (concentration 10^-5): 8.2%

COC(=O)C1=COC(C)C2CN3CCC4(C(=O)Nc5ccccc54)C3CC12 (centres unmarked) [Speciophylline, speciophylline]
percental phagocytosis increase (concentration 10^-2): 10.5%
percental phagocytosis increase (concentration 10^-3): 18.5%
percental phagocytosis increase (concentration 10^-4): 26.0%
percental phagocytosis increase (concentration 10^-5): 35.3%

COc1ccc2cc3[n+](cc2c1OC)CCc1cc2c(cc1-3)OCO2 [berberine, reference compound]
effect in the granulocytic test [1]: inactive

CC[C@@]1(O)C(=O)OCc2c1cc1n(c2=O)Cc2cc3ccccc3nc2-1 [camotothecine, reference compound]
effect in the granulocytic test (up to dilutions of 10^-6 %): no effects have been found

O=c1cccc2n1C[C@@H]1CNC[C@H]2C1 [cytisine, reference compound]
effect in the granulocytic test: did not show any effect

C1CCN2C[C@@H]3C[C@@H](CN4CCCC[C@@H]34)[C@H]2C1 [sparteine, reference compound]
effect in the granulocytic test [1]: did not show any effect

COc1cc2c(cc1OC)[C@H](Cc1ccc(Oc3c4c(cc(OC)c3OC)-c3c(OC)c(OC)c(OC)c5c3[C@H](C4)N(C)CC5)cc1)N(C)CC2 [thalifaberine, reference compound]
effect in the granulocytic test [1]: negative

huangshanine [reference compound]
effect in the granulocytic test [1]: negative

thalifabine [reference compound]
effect in the granulocytic test [1]: negative

— patent US5302611A, “Oxindole alkaloids having properties stimulating the immunologic system & preparation containing the same” (Keplinger; Klaus, priority 1980, dated 1994)
